{"source": "patent US20150359884A1", "about": "“MULTI-PHOTON ISOMERISATION OF COMBRETASTATINS AND THEIR USE IN THERAPY” (priority 2011, published 2015)", "key": {"[1]": {"test": "Picosecond time-resolved infrared (TRIR) spectroscopy of excited states", "format": "physicochemical", "experimental": "The ultrafast time-resolved infrared (TRIR) experiments were performed on the ‘ULTRA’ laser system at the Science and Technology Facilities Council Rutherford Appleton Laboratory. The capabilities of the ULTRA instrument are described in detail elsewhere. Briefly, a chirped pulse amplified titanium:sapphire laser operating at 10 kHz repetition rate produced 40-80 fs duration pulses at a wavelength of 800 nm. The UV excitation pulse was generated from third harmonic generation of the 800 nm output of the amplifier with ˜50 fs duration at 266 nm, irradiating samples with a 1 μJ, 100 μm diameter beam. The mid-IR probe pulse was generated using ˜0.4 mJ of the 800 nm femtosecond output to pump an optical parametric amplifier, and difference frequency mixing of the signal and idler components. The mid-IR probe output pulses had ˜500 cm-1 bandwidth and ˜50 fs pulse duration. The UV pulses were polarized at a magic angle to the IR probe laser polarization. The timing between the pump and probe was performed using a PCcontrolled optical delay line. The sample in solution was placed between two 25 mm diameter CaF2 plates in a rasterscanned Harrick cell to limit irradiation of the sample by multiple pulses. The optical path of the sample between the two windows was controlled using a 100 μm PTFE spacer and the solution flowed using a peristaltic pump. The intensity of the transmitted mid-IR light was dispersed by a grating onto a pair of 128-element mercury-cadmium telluride array detectors (IR Associates), providing full (i.e. ˜500 cm-1) spectral coverage with every laser pulse. The overall instrument response time was ˜200 fs. A reference spectrum of the laser pulse (before the Harrick cell) was accumulated on a third, 64-element array detector and was used to remove the effects of laser fluctuations from the transient absorption data. Ground-state FTIR spectra were recorded using a Nicolet Avatar 360 spectrometer.\nFIGS. 12 and 13 show the TRIR spectra of both isomers of CA4 following ultrafast electronic excitation using 266 nm, with the ground-state FTIR spectra shown beneath the time resolved data for comparison. To date there has been little characterization of combretastatins by infrared spectroscopy. However, the ground-state FTIR spectra have obvious similarities with stilbene and on this basis we assign the 1586/1581 and 1510/1509 cm-1 bands in E-CA4/Z-CA4 to the v8a ring stretches of the phenyl groups and v19a ring stretch with additional contributions from C—H in-plane bending. In the excited state spectra, there are negative absorption bands corresponding to bleaching of the ground-state absorptions and both the E- and Z-isomers are dominated by transient bands between 1350 and 1500 cm-1. At early times the transient bands show rapid shifting over about 10 cm-1 to higher wavenumbers associated with rapid ‘cooling’ of excess vibrational energy following electronic excitation as commonly observed in other molecular systems including DNA [26] and for the C═C stretching band of E-stilbene observed by time-resolved resonance Raman spectroscopy. It is also notable that for E-CA4 at pump-probe delays up to 20 ps, the intensities of the transient bands increase and this is most likely due to molecular rearrangements taking place lowering the overall symmetry of the molecule and increasing the cross-sections of these IR active modes. […]"}, "HeLa cells": {"tested_on": "HeLa cells", "test": "Fluorescence lifetime imaging (FLIM) of uptake and intracellular concentration in HeLa cells", "conditions": "HeLa cells, 100 μM added", "experimental": "Both HeLa and Chinese hamster ovary (CHO) cells were obtained from the European Collection of Cell Cultures. HeLa cells were cultured in MEM medium (Gibco) containing 10% foetal calf serum, penicillin (100 units/mL), streptomycin (100 μg/mL) and glutamine (2 mM). CHO cells were cultured in DMEM (Gibco) with the same additions as for the HeLa cells. For microscopy the adherent cell cultures were grown in 35 mm diameter glass-bottom culture dishes with optical quality glass (MatTek Corporation) and incubated at 37° C. in a humidified atmosphere containing 5% CO2. Human umbilical vein endothelial cells (HUVECs) were obtained from TCS Cellworks. HUVECs were sub-cultured in basal medium (TCS Cellworks) supplemented with antibiotic supplement/amphotericin-B, following the detailed guidelines provided by TCS Cellworks.\nThe fluorescence lifetime imaging system with multiphoton excitation employed lasers for multiphoton excitation consisting of a Ti:Sapphire laser, tuneable between 700 and 1000 nm and providing ca 180 fs pulses at 76 MHz, and an optical parametric oscillator (OPO) pumped by a second Ti:Sapphire laser source. Using the doubled idler output of the OPO, useful energies (>200 mW) could be obtained between 550 and 640 nm. Samples were excited on the stage of Nikon TE2000U inverted microscope using a water immersion ×60 objective of NA 1.2. Using the various microscope ports it was possible to record the fluorescence in a number of ways. The fluorescence signal at one port was relayed to a spectrometer (Acton 275) and CCD setup (Andor iDUS) so that emission spectra and intensities could be recorded. Alternatively the fluorescence signal could be routed via a second port to a time-correlated single photon counting (TCSPC) system (Becker and Hickl SPC-830) allowing fluorescence lifetime measurements and fluorescence lifetime imaging (FLIM), using Becker and Hickl software (SPCImage) for analysis. In FLIM mode the fluorescence was isolated by a suitable narrowband interference filter (400IU25 together with BG3 (Comar)). […] Two photon cross sections were determined using a reference fluorophore as a two photon standard as described by Mathai et al., employing published values of the two-photon cross section for 9-chloroanthracene.\nImages of intracellular distribution of E-combretastatins in cell monolayers were obtained using fluorescence lifetime imaging, in which the rastered excitation laser beam dwells on each pixel for a few milliseconds and at each position records a nanosecond fluorescence lifetime decay curve using the time-correlated single photon counting method. […]\nQuantification of fluorophore concentration from intensity measurements is often difficult."}, "[2]": {"conditions": "dichloromethane, 266 nm excitation"}, "[3]": {"conditions": "room temperature, approximately 10 minutes"}}}
{"smiles": "COc1ccc(/C=C/c2cc(OC)c(OC)c(OC)c2)cc1O", "note": "[E-CA4, (E)-1-(3′,4′,5′-Trimethoxyphenyl)-2-(4″-methoxy-3″-hydroxy-phenyl)ethene]", "values": [{"measurement": "Excited state decay, longer lifetime (relaxed excited state)", "setting": "[1]; [2]", "value": "503±56", "unit": "ps"}, {"measurement": "Excited state decay, shorter lifetime (biexponential fit)", "setting": "[1]; [2]", "value": "6.5±0.46", "unit": "ps"}, {"measurement": "Lifetime of the relaxed excited state measured by TRIR", "setting": "[1]; methanol", "value": "230±14", "unit": "ps"}, {"measurement": "Intracellular concentration as times the concentration in the medium", "setting": "HeLa cells", "value": "20-40 times"}, {"measurement": "Intracellular concentration, smaller regions", "setting": "HeLa cells; [3]", "value": "> 4", "unit": "mM"}, {"measurement": "Intracellular concentration, substantial regions of the cell cytoplasm", "setting": "HeLa cells; [3]", "value": "> 2", "unit": "mM"}]}
